# Laboratory results taken from US20020110604A1, “Composition exhibiting synergistic antioxidant activity” (Ashni Naturaceuticals, Inc., priority 2000, published 2002).
# Experiment: Total Oxyradical Scavenging Capacity (TOSC) Assay; synergy by CalcuSyn median-effect analysis
# Format: biochemical
# Details: TOSC antioxidant capacity; pure compounds, astaxanthin alone or combined at the stated ratio
# Experimental: Cm is determined from the x-intercept of the median-effect plot. The fraction affected by the concentration of the test material is fa and the fraction unaffected by the concentration is fu (fu=1−fa). The exponent m is the parameter signifying the sigmoidicity or shape of the dose-effect curve. It is estimated by the slope of the median-effect plot. […] The goodness of fit for the data to the median-effect equation is represented by the linear correlation coefficient r of the median-effect plot. […] Synergy of test components is quantified using the combination index (CI) parameter. […] The equation determines only the additive effect rather than synergism or antagonism.
smiles,measurement,value
"CC1=C(/C=C/C(C)=C/C=C/C(C)=C/C=C/C=C(C)/C=C/C=C(C)/C=C/C2=C(C)C(=O)[C@@H](O)CC2(C)C)C(C)(C)C[C@H](O)C1=O [astaxanthin, 3, 3′-dihydroxy-β,β-carotene-4, 4′-dieto-β-carotene]",EC50,642 µM
